One test has as its target T1, Human recombinant renin (Homo sapiens, UniProt P00797).
T1 construct: purchased Proteos
T1 sequence (P00797 67-406): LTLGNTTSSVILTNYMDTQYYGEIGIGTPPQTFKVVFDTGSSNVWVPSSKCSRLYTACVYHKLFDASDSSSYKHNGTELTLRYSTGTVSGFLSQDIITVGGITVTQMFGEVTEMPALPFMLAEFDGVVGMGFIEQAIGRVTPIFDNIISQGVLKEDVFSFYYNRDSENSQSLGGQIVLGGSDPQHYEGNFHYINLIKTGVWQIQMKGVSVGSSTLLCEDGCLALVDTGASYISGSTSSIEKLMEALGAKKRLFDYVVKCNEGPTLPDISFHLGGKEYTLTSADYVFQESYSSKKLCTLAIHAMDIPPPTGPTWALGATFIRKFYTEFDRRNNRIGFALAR
Nature of the test: Inhibition of human recombinant renin (buffer). The format is biochemical. The conditions noted are these: 100 pM renin, 50 mM MOPS pH 7.4, 37° C., 3 hours. As to the method:
Fluorescence is measured at times 0 and 3 hours with a SpectraMax Gemini EM reader set at an excitation wavelength of 328 nm and at an emission wavelength of 388 nm. Background fluorescence at t=0 is subtracted from the measurement at t=3 hours. Inhibitory activity of the compounds is expressed as IC50.

Test [1] deals with T2, recombinant renin in human plasma (Homo sapiens, UniProt P00797).
T2 construct: purchased Proteos
T2 sequence (P00797 67-406): T1 sequence (P00797 67-406)
Nature of the test: Inhibition of renin in human plasma. The conditions noted are these: human EDTA plasma, 1 nM recombinant renin added, 37° C., 1 hour. The class given is biochemical. Here is the method: Human EDTA-collected plasma is rapidly thawed in warm water and centrifuged at 2900 g for 15 minutes at 4° C. The supernatant is collected and recombinant renin (Proteos) is added at a final concentration of 1 nM. […] The plate is incubated at 37° C. for 1 hour. […] Background fluorescence at t=0 is subtracted from the measurement at t=1 hour. Inhibitory activity of the compounds is expressed as IC50.

[2] abbreviates: read-out: Human Renin IC50 (buffer).
Where [3] appears, read: read-out: Human Renin IC50 (plasma).

SMILES strings stand for the structures. Like-named read-outs stand apart in the source and are kept apart here.

For `COCCCc1cc(Cl)c(Cl)c(CN(C(=O)[C@@H]2CNCC[C@H]2c2ccn(C)c(=O)c2)C2CC2)c1` (relative stereo) [Example 5, trans-N-Cyclopropyl-N-({2,3-dichloro-5-[3-(methyloxy)propyl]phenyl}methyl)-4-(1-methyl-2-oxo-1,2-dihydro-4-pyridinyl)-3-piperidinecarboxamide], the IC50 was found to be 0.3 nM on Human recombinant renin (setting [2]) and 1.3 nM in test [1] (setting [3]).
For `CCn1ccc([C@@H]2CCNC[C@H]2C(=O)N(Cc2cc(CCCOC)cc(OCCOC)c2)C2CC2)cc1=O` (relative stereo) [Example 12, trans-N-Cyclopropyl-4-(1-ethyl-2-oxo-1,2-dihydro-4-pyridinyl)-N-({3-{[2-(methyloxy)ethyl]oxy}-5-[3-(methyloxy)propyl]phenyl}methyl)-3-piperidinecarboxamide] the same measures were 200 nM and 460 nM.
With `COCCCc1cc(CN(C(=O)[C@@H]2CNCC[C@H]2c2cc(=O)n(C)c(C)c2C)C2CC2)cc(OCCOC)c1` (relative stereo) [Example 13, trans-N-Cyclopropyl-N-({3-{[2-(methyloxy)ethyl]oxy}-5-[3-(methyloxy)propyl]phenyl}methyl)-4-(1,5,6-trimethyl-2-oxo-1,2-dihydro-4-pyridinyl)-3-piperidinecarboxamide], the IC50 on Human recombinant renin (setting [2]) amounted to 25 nM; in test [1] (setting [3]), 80 nM.
The like results for `COCCCc1cc(CN(C(=O)[C@@H]2CNCC[C@H]2c2ccn(C)c(=O)c2)C2CC2)c2ccccc2c1` (relative stereo) [Example 18, trans-N-Cyclopropyl-4-(1-methyl-2-oxo-1,2-dihydro-4-pyridinyl)-N-({3-[3-(methyloxy)propyl]-1-naphthalenyl}methyl)-3-piperidinecarboxamide] were, in that order, 0.4 nM and 1.8 nM.
`COCCCc1cc(CN(C(=O)[C@@H]2CNCC[C@H]2c2ccn(C)c(=O)c2)C2CC2)c2ccccc2n1` (relative stereo) [Example 25, trans-N-Cyclopropyl-4-(1-methyl-2-oxo-1,2-dihydro-4-pyridinyl)-N-({2-[3-(methyloxy)propyl]-4-quinolinyl}methyl)-3-piperidinecarboxamide]: the IC50 on Human recombinant renin (setting [2]) came out at 1.4 nM; in test [1] (setting [3]), 3 nM.
The like results for `COCCCc1cc(CN(C(=O)[C@@H]2CNCC[C@H]2c2ccn(C)c(=O)c2)C2CC2)cc(-c2ccccc2)c1` (relative stereo) [Example 33, trans-N-Cyclopropyl-4-(1-methyl-2-oxo-1,2-dihydro-4-pyridinyl)-N-({5-[3-(methyloxy)propyl]-3-biphenylyl}methyl)-3-piperidinecarboxamide] were, in that order, 15 nM and 81 nM.
On to `COCCNc1cc(CN(C(=O)[C@@H]2CNCC[C@H]2c2ccn(C)c(=O)c2)C2CC2)c2ccccc2c1` (relative stereo) [Example 36, trans-N-Cyclopropyl-4-(1-methyl-2-oxo-1,2-dihydro-4-pyridinyl)-N-[(3-{[2-(methyloxy)ethyl]amino}-1-naphthalenyl)methyl]-3-piperidinecarboxamide], for which the IC50 at Human recombinant renin (Human Renin IC50 (buffer)) came to 5.3 nM; in test [1] (Human Renin IC50 (plasma)), 2.4 nM.
Take `Cn1ccc([C@@H]2CCNC[C@H]2C(=O)N(Cc2cn(Cc3cccc(F)c3)c3cccc(F)c23)C2CC2)cc1=O` (relative stereo) [Example 68, trans-N-Cyclopropyl-N-({4-fluoro-1-[(3-fluorophenyl)methyl]-1H-indol-3-yl]methyl}-4-(1-methyl-2-oxo-1,2-dihydro-4-pyridinyl)-3-piperidinecarboxamide]: the IC50 at Human recombinant renin (setting [2]) turned out to be 0.06 nM; in test [1] (setting [3]) it was 0.6 nM.
For `COCCCn1cc(CN(C(=O)[C@@H]2CNCC[C@H]2c2ccn(C)c(=O)c2)C2CC2)c2c(F)cccc21` (relative stereo) [Example 69, trans-N-Cyclopropyl-N-({4-fluoro-1-[3-(methyloxy)propyl]-1H-indol-3-yl}methyl)-4-(1-methyl-2-oxo-1,2-dihydro-4-pyridinyl)-3-piperidinecarboxamide] the same measures were 0.3 nM and 0.9 nM.
In the case of `Cn1ccc([C@@H]2CCNC[C@H]2C(=O)N(Cc2cn(Cc3cccc(F)c3)c3cccc(Br)c23)C2CC2)cc1=O` (relative stereo) [Example 73, trans-N-({4-Bromo-1-[(3-fluorophenyl)methyl]-1H-indol-3-yl}methyl)-N-cyclopropyl-4-(1-methyl-2-oxo-1,2-dihydro-4-pyridinyl)-3-piperidinecarboxamide], the IC50 was below 0.06 nM on Human recombinant renin (setting [2]) and 0.5 nM in test [1] (setting [3]).
For `Cn1ccc([C@@H]2CCNC[C@H]2C(=O)N(Cc2c[nH]c3cccc(F)c23)C2CC2)cc1=O` (relative stereo) [Example 75, trans-N-Cyclopropyl-N-[(4-fluoro-1H-indol-3-yl)methyl]-4-(1-methyl-2-oxo-1,2-dihydro-4-pyridinyl)-3-piperidinecarboxamide] the same measures were 12.7 nM and 8.4 nM.
`Cn1ccc([C@@H]2CCNC[C@H]2C(=O)N(Cc2cn(Cc3ccncc3)c3cccc(F)c23)C2CC2)cc1=O` (relative stereo) [Example 77, trans-N-Cyclopropyl-N-{[4-fluoro-1-(4-pyridinylmethyl)-1H-indol-3-yl]methyl}-4-(1-methyl-2-oxo-1,2-dihydro-4-pyridinyl)-3-piperidinecarboxamide]: the IC50 on Human recombinant renin (setting [2]) turned out to be 0.2 nM; in test [1] (setting [3]), 0.5 nM.
With `COCCCn1cc(CN(C(=O)[C@@H]2CNCC[C@H]2c2ccn(C)c(=O)c2)C2CC2)c(=O)n(CCCOC)c1=O` (relative stereo) [Example 79, trans-N-({1,3-Bis[3-(methyloxy)propyl]-2,4-dioxo-1,2,3,4-tetrahydro-5-pyrimidinyl}methyl)-N-cyclopropyl-4-(1-methyl-2-oxo-1,2-dihydro-4-pyridinyl)-3-piperidinecarboxamide], the values for the half-inhibitory concentration (IC50) (on Human recombinant renin (setting [2]); in test [1] (setting [3])) were 58 nM and 75 nM, respectively.
With `COCCCc1ccc(SC)c(CN(C(=O)[C@H]2CNCC[C@@H]2c2ccn(C)c(=O)c2)C2CC2)c1` (relative stereo) [Example 84, trans-N-Cyclopropyl-4-(1-methyl-2-oxo-1,2-dihydro-4-pyridinyl)-N-{[5-[3-(methyloxy)propyl]-2-(methylthio)phenyl]methyl}-3-piperidinecarboxamide], the IC50 at Human recombinant renin (setting [2]) came out at 4.7 nM; in test [1] (setting [3]), 12.3 nM.
With `COCCCc1cc(CN(C(=O)[C@H]2CNCC[C@@H]2c2ccn(C)c(=O)c2)C2CC2)cc(Br)c1C` (relative stereo) [Example 85, trans-N-({3-Bromo-4-methyl-5-[3-(methyloxy)propyl]phenyl}methyl)-N-cyclopropyl-4-(1-methyl-2-oxo-1,2-dihydro-4-pyridinyl)-3-piperidinecarboxamide], the figures for the IC50 (on Human recombinant renin (setting [2]); in test [1] (setting [3])) were 0.9 nM and 1.3 nM, respectively.
Regarding `COCCCc1cc(CCCOC)c(Cl)c(CN(C(=O)[C@H]2CNCC[C@@H]2c2ccn(C)c(=O)c2)C2CC2)c1` (relative stereo) [Example 89, trans-N-[2-Chloro-3,5-bis(3-methoxypropyl)benzyl]-N-cyclopropyl-4-(1-methyl-2-oxo-1,2-dihydro-4-pyridinyl)-3-piperidinecarboxamide], the figures for the IC50 (on Human recombinant renin (setting [2]); in test [1] (setting [3])) were 0.2 nM and 0.5 nM, respectively.
With `Cc1c(Br)cc(CN(C(=O)[C@@H]2CNCC[C@H]2c2ccn(C)c(=O)c2)C2CC2)cc1CCCOC(F)F` (relative stereo) [Example 103, trans-N-{3-Bromo-5-[3-(difluoromethoxy)propyl]-4-methylbenzyl}-N-cyclopropyl-4-(1-methyl-2-oxo-1,2-dihydro-4-pyridinyl)-3-piperidinecarboxamide], the IC50 came to 0.3 nM at Human recombinant renin (setting [2]) and 1.4 nM in test [1] (setting [3]).
As for `Cc1cc(Cc2ccccc2)cc(CN(C(=O)[C@@H]2CNCC[C@H]2c2ccn(C)c(=O)c2)C2CC2)c1` (relative stereo) [Example 104, trans-N-(3-Benzyl-5-methylbenzyl)-N-cyclopropyl-4-(1-methyl-2-oxo-1,2-dihydro-4-pyridinyl)-3-piperidinecarboxamide], the IC50 on Human recombinant renin (setting [2]) came out at 7.5 nM; in test [1] (setting [3]), 21 nM.
`COCCc1ccc(Cl)c(CN(C(=O)[C@H]2CNCC[C@]2(OC)c2ccn(C)c(=O)c2)C2CC2)c1` (relative stereo) [Example 109]: the results for the IC50 (at Human recombinant renin (setting [2]); in test [1] (setting [3])) were 1.3 nM and 3.2 nM, respectively.
For `COCCCc1ccc2c(c1)C(N(C(=O)[C@H]1CNCCC1c1ccn(C)c(=O)c1)C1CC1)CCC2` (single isomer, unassigned) [Example 100 Diastereomer A, trans-N-Cyclopropyl-N-[7-(3-methoxypropyl)-1,2,3,4-tetrahydro-1-naphthalenyl]-4-(1-methyl-2-oxo-1,2-dihydro-4-pyridinyl)-3-piperidinecarboxamide] the same measures were 0.3 nM and 1.2 nM.

The record behind these values is patent publication US8889714B2, “3,4-substituted piperidine derivatives as renin inhibitors” (Actelion Pharmaceuticals Ltd., priority 2008, dated 2014).
